Source: a melting point compilation (Tetko et al.; mined from patent text by program, amines drawn as free bases though some values may be those of a salt)

Row | Structure (SMILES) | melting point [°C]
1 | Cc1c(F)c(N2CCNCC2)c(F)c2c1c(=O)c(C(=O)O)cn2-c1ccc(F)cc1F | 240 to 242
2 | NC1(C(=O)O)C=CC(Br)=C(F)C1 (stereo not given) | 180
3 | CC(C)OC(=O)C=CC(=O)NC(N)=O | 113 to 114
4 | N#CCC1Cn2cccc2C1=O (stereo not given) | 68
5 | Cc1nc2c(-c3cccc(N4CCN(CCO)CC4)c3)cnn2c(N)c1-c1ccc(F)cc1 | 209 to 212
6 | N#Cc1ccc(Oc2ccc(-c3ccc(Oc4ccc(C#N)c(C#N)c4)cc3)cc2)cc1C#N | 230 to 232
7 | CN(C)C(=O)c1c(-c2ccc(N(C)C)cc2)ccc2ccccc12 | 156 to 157
8 | CS(=O)(=O)c1ccc(-c2cnn(C3Cc4ccccc4C3)c(=O)c2-c2ccc(F)cc2)cc1 | 97 to 100
9 | CNc1cn(-c2cncc(F)c2)nc1C1CC1 | 118 to 120
10 | CO[C@@H]1[C@@H](OC)[C@H](C)O[C@@H](OC(=S)Nc2ccc(-c3nccn3-c3ccc(OC(F)(F)F)cc3)cc2)[C@@H]1OC | 129
11 | CCN1CCN(Cc2cc(-c3ccc4c(Nc5cc(OC)c(Cl)cc5Cl)c(C#N)cnc4c3)cs2)CC1 | 118 to 120
12 | O=c1[nH]nc(-c2ccccc2Nc2cccc(C(F)(F)F)c2)s1 | 157 to 160
13 | O=C(CCc1ccccc1)Nc1ccc(C(=O)NN=C2C(=O)Nc3ccc(I)cc32)cc1 | 297
14 | O=C1c2ccccc2C(=O)N1CC1CCC2CN(c3ccccn3)CCN2C1 (stereo not given) | 167 to 168
15 | O=C1NCC=NN1c1cc(Cl)c(Cc2ccc(Cl)cc2)c(Cl)c1 | 199 to 200
16 | CC(=NNc1c(Cl)cc(C(F)(F)F)cc1Cl)C(=NO)C(=O)Nc1ccccc1 | 185 to 186
17 | CN1C(=O)[C@@H](NC(=O)C(C)(C)C)N=C(c2ccccc2)c2ccccc21 | 85 to 94
18 | CC(=NNc1ccc(-c2ccc(=O)n(C)n2)cc1)c1ccc(O)cc1O | 263 to 268
19 | CCn1cc([N+](=O)[O-])cn1 | 54 to 55
20 | COC(=O)Nc1nc(C)c(-c2nc3ccccc3c(=O)n2-c2ccccc2Cl)s1 | 243 to 245
21 | CC(C)NC(=O)c1cnc(N2CCC(N3C(=O)OCc4ccccc43)CC2)c(Cl)c1 | 216
22 | CC1CC(=O)c2c(C(=O)Nc3cccnc3)c[nH]c2C1 (stereo not given) | 225 to 227
23 | COc1cccn2c(=O)c(CCN3CCC(c4noc5cc(F)ccc45)CC3)c(C)nc12 | 209
24 | Cc1cccc2c1N(CC(=O)N1CC3CCC(CC3)C1)C(=O)C(NC(=O)Nc1cccc(Cl)c1)N=C2c1ccccc1F (stereo not given) | > 250
25 | CN(C)CC1COc2ccc(NC(=O)c3ccc(-c4ccc(Cl)cc4)cc3)cc2O1 (stereo not given) | 158 to 159
26 | COc1cccc2nc(-c3ccc4c(c3)NC(=O)C4(C)C)[nH]c12 | 222 to 225
27 | N#Cc1cc(C#N)cc(Oc2nccc(Oc3cc(Cl)cc(Cl)c3)n2)c1 | 156

Row | Structure (SMILES) | melting point [°C]
28 | c1ccc([C@H]2C[C@@H]2Nc2cc(-c3ccco3)nc(-c3nccs3)n2)cc1 (relative stereo) | 90 to 91.9
29 | CCNC(=N)N(C(=N)NCC)c1cc(C(C)(C)C)c2c(c1)C(C)(C)CO2 | > 290
30 | N#Cc1c(Cl)c2cc(F)cnc2[nH]c1=O | 272
31 | N#Cc1nn(-c2c(Cl)cc(C(F)(F)F)cc2Cl)c(N)c1-c1ccc(Br)s1 | 214
32 | Cc1nc(-c2cc3cc(OCCNC[C@H](O)c4cccc(Cl)c4)ccc3o2)cs1 | 127 to 129
33 | COC(=O)COc1ccc(CC(C)NCC(O)c2cc3ccccc3o2)cc1C (stereo not given) | 115 to 130
34 | CC12CCCC=C1CCC1C2CCC2(C)C(OC3CCCCO3)CCC12 (stereo not given) | 92 to 96
35 | COC1CC(NC(=O)C(F)(F)F)C(C)(O)C(C)O1 (stereo not given) | 133 to 134
36 | CCCCN(CCCC)c1ccc(C=CC=CC=CC2=C(C#N)C(=C(C#N)C#N)OC2(c2ccccc2)C(F)(F)F)c(OC)c1 (stereo not given) | 208 to 210
37 | Cc1cc(CCCCCOc2c(Cl)cc(C3=NCCC3)cc2Cl)on1 | 57 to 59
38 | CN(C)c1cc2nc(C(C)(C)C)sc2cc1NC(N)=S | 275 to 280
39 | CCN1C(=O)C(C)(C)C(=O)N(C)c2cc(CN(CCn3ccc4oc(C)c(C)c4c3=O)Cc3cc(C)nn3C)ccc21 | 148 to 150
40 | CN1CCCN(C2=Nc3cc(Cl)ccc3Nc3ccccc32)CC1 | 143 to 145
41 | O=C(O)C1=CCC(c2ccccc2)(c2ccccc2)CC1 | 227 to 229
42 | COc1cc(C(C)C#Cc2cnc(N)nc2N)cc(OC)c1OC (stereo not given) | 220 to 222
43 | COC(=O)c1nc2n(c1C(=O)OC)-c1ccc(Cl)cc1C(c1ccccc1F)=NC2 | 206 to 207
44 | CC(=O)C(Cc1cc(C(C)(C)C)c(O)c(C(C)(C)C)c1)(Cc1cc(C(C)(C)C)c(O)c(C(C)(C)C)c1)C(=O)OC1CC(C)(C)NC(C)(C)C1 | 177 to 178
45 | CC(Nc1nnc(-c2ccsc2)c2ccccc12)c1ccccc1 (stereo not given) | 144 to 146
46 | CSc1nc(-c2cc(C(C)(C)C)c(O)c(C(C)(C)C)c2)cs1 | 92 to 93
47 | COc1nc(C#N)c(C#N)[nH]1 | 137 to 138
48 | Cc1nnc(SCC2=C(C(=O)O)N3C(=O)C(NC(=O)CC4=CSCCS4)C3SC2)s1 (stereo not given) | 170
49 | Cc1ccc(N=c2ccn3ccccc3c2)cc1C | 185 to 187
50 | CCCCN(CCCC)c1ccc(C=Cc2ccc(C=CC3=C(C#N)C(=C(C#N)C#N)OC3(C)C(F)(F)F)s2)c(OCc2ccccc2)c1 (stereo not given) | 184 to 185
51 | CN(Cc1ccc(NC(=O)C2=Cc3cc(-c4ccc5c(c4)OCCO5)ccc3S(=O)(=O)CC2)cc1)C1CCOCC1 | 248 to 251
52 | COc1cc(Nc2c(C#N)cnc3cc(/C=C/c4ccncc4)ccc23)c(Cl)cc1Cl | 218 to 219
53 | c1cncc(-c2ccc3nnn(Cc4ccc5ncccc5c4)c3n2)c1 | 208 to 210
54 | CC1(CSc2ccccc2)COC2(CCCCC2)OO1 (stereo not given) | 45 to 46

The next lines start with the values.

Row | melting point [°C] | Structure (SMILES)
55 | 196 to 198 | CCOC(=O)n1c(C(=O)c2ccc(F)cc2)c(NC(C)=O)c2ccc(Cl)cc21
56 | 185 to 187 | O=C(NCc1ccccc1C(=O)O)c1cccc(/C=C/c2nc(C3CCC3)cs2)c1
57 | 220 to 221 | O=C(c1ccc(Cl)cc1)N1CCc2cc(S(=O)(=O)n3cc(-c4ccccc4)[nH]c3=O)ccc21
58 | 202 to 204 | CC(C)c1ccc(-c2nnc(-c3cccc(C(=O)O)c3)o2)cc1
59 | 80 to 82 | Cc1ccc(C(=O)c2ccn(C)c2C)cc1
60 | 317 to 320 | Cc1cc(C(=O)O)cc(C)c1C(O)c1cc(-n2ccnc2)ccc1Cl (stereo not given)
61 | 174 | CCOC(=O)C1=C(C)NC(N)=C(C(=O)OCC)C1c1cccc2ccccc12 (stereo not given)
62 | < 250 | NNc1nc2cc(Cl)ccc2nc1Cl
63 | 184 to 186 | CC(C(N)=O)c1ccc2c(c1)CC(=O)c1ccccc1S2 (stereo not given)
64 | 95 to 96 | Cc1cccc(C2COc3c(ccc(O)c3O)C2)c1 (stereo not given)
65 | 106 | CCCCCCC#Cc1ccc(C=C(C(=O)O)C(=O)O)s1
66 | 78 | CCOC(=O)C(C)Oc1ccc(Nc2ccc(C(F)(F)F)cc2N)cc1 (stereo not given)
67 | 122 to 124 | COc1cc(NC(=O)CCCCCN2CCNCC2)c2nccc(C)c2c1
68 | 162 to 164 | CCOC(=O)Nc1ccc(CN2OCC(C)(C)C2=O)c(Cl)c1
69 | 183 to 185 | Cn1c(COc2cccc([N+](=O)[O-])c2)nc2ccccc21
70 | 122 | CCCC(C)(O)C(=O)Nc1cc(Br)nc(OC)c1 (stereo not given)
71 | 130 to 131 | CC(NC(=O)c1cccc([N+](=O)[O-])c1)C(F)(F)F (stereo not given)
72 | 213 to 216 | O=C(O)CN(CC(=O)O)C(=O)OCC1c2ccccc2-c2ccccc21
73 | 156 to 159 | CCc1nc(C)n(COCc2ccccc2)c1Sc1ccccc1
74 | 230 to 232 | C=CC[C@H](C(N)=O)[C@@H](CC(C)C)C(=O)NC1N=C(N(C)C)c2ccccc2N(C)C1=O (stereo not given in full)
75 | 240 to 244 | NS(=O)(=O)c1cc2cc(P(=O)(O)O)c(=O)[nH]c2cc1C(F)(F)F
76 | 133 to 136 | CC(Sc1nc(Cl)cc(NCc2ccc(Cl)cc2)n1)C(=O)O (stereo not given)
77 | 119 to 120 | CCOC(=O)Cc1nc(-c2ccc(Cl)cc2)oc1-c1cccs1

Row | melting point [°C] | Structure (SMILES)
78 | 142 to 145 | COCN(C(=O)Cc1ccc(Cl)cc1)C(c1cncnc1C(F)(F)F)C(C)C (stereo not given)
79 | 104 | CON(C)C(=O)Nc1ccc(CC#N)cc1Cl
80 | 123 to 125 | CNC(=O)NC(=O)N(C)c1ccccc1
81 | 133 to 134 | CC(C)(NS(=O)(=O)c1ccc(Oc2ccc(F)cc2)cc1)C(=O)NO
82 | 279 to 280 | Cc1c(C(=O)O)oc2cc(O)c(Cl)cc12
83 | 99 to 100 | COC(=O)c1ccc(Cl)c(Cn2nnn(C3CC3)c2=O)c1Cl
84 | 209 to 210 | CCCCCc1c(/C=C/C(=O)O)sc2cc(OC)ccc12
85 | 110 to 112 | CCn1cc(CN(C(=O)C2CCCc3ccc(C)cc32)c2ccc(C(C)C)cc2)cn1 (stereo not given)
86 | 72 to 74 | N#Cc1ccc(CCCN)cc1
87 | 164 to 166 | CC(=O)NCc1ccc(CN2CCN(c3ccc(F)cc3)CC2)cc1
88 | 218 | O=C1CC(C(=O)O)CC(O)=C1N=Nc1ccccc1 (stereo not given)
89 | 64.5 to 65.5 | COCCOc1ccc(C=O)c(O)c1
90 | 123 to 124 | CCCC(O)C(C)C(=O)n1c(=O)oc2ccccc21 (stereo not given)
91 | 145 to 147 | COc1ccc(Cc2ccc(C(=O)O)nc2)cc1
92 | 171 to 172 | CCCOCCOc1ccc(-c2ccc3c(c2)C=C(C(=O)Nc2ccc(CN(C)C4CCOCC4)cc2)CCS3(=O)=O)cc1OCC
93 | 46 to 48 | CCOC(=O)c1c(OC(C)C)c(Br)c(Br)n1Cc1ccccc1
94 | 75 to 76 | CC(=O)OCN1C(=O)CON(C(C)=O)C1c1ccccc1 (stereo not given)
95 | 185 to 190 | CN(C)C(=O)c1c(S(N)(=O)=O)ccn1C
96 | 144 to 147 | COC(=O)C=Cc1ccc(-c2ccccc2)cc1
97 | 116 to 117 | O=C1C(=Cc2ccoc2)CCc2cc(OCCn3ccnc3)ccc21
98 | 158 to 159 | CCOc1ccc(CC(C)=O)cc1S(N)(=O)=O
99 | 192 to 193 | COCCn1cc(C(=O)NCc2ccc(Cl)cc2)c(=O)c2cc(CCl)sc21
100 | 65 to 67 | CCCCc1cc(C=CC(=O)OC)c[nH]1
